Experimental data: publication PMC8698377, “In Vitro Hepatic Assessment of Cineole and Its Derivatives in Common Brushtail Possums (Trichosurus vulpecula) and Rodents” (Biology, 2021)

Test system: CYP3A
Assay: CYP3A catalytic activity (erythromycin-N-demethylation), possum hepatic microsomes
Type: in vitro ADME, possum (Trichosurus vulpecula)
Settings: 12.5 µM
Procedure: (§1) Microsomal preparation was as previously outlined. Individual livers were placed in beakers containing 1.15% KCl. All the procedures were carried out at 0–4 °C. The liver samples were minced and homogenised in buffer A (0.1 M Tris, 0.1 M potassium chloride, 1 mM EDTA, and 20 μM butylated hydroxytoluene, at pH = 7.4) using the Teflon-glass homogeniser (5–6 vertical passes). The samples were centrifuged for 20 min at 10,000× g. The supernatant was then transferred into another set of centrifuge tubes and spun for 60 min at 100,000× g. The pellet was resuspended in Buffer B (0.1 M potassium pyrophosphate, 1 mM EDTA, and 20 μM butylated hydroxytoluene, at pH = 7.4), homogenised and recentrifuged for 60 min at 100,000× g. Finally, the pellet was homogenised in 1–2 mL of Buffer C (10 mM Tris-HCl, 1 mM EDTA, and 4% glycerol (v/v)) and stored at […] until used. The protein concentration of the microsomes was determined using the Bicinchoninic acid (BCA) method.
(§2) CYP3A catalytic activity was determined using the erythromycin-N-demethylation activity assay as described previously. The reaction mixture (final volume of 1 mL and final protein concentration of 1 mg) contained 500 µL of microsomes in 0.1 M phosphate buffer (pH = 7.4), 400 µL of erythromycin buffer (0.45 mM), and 50 µL of the test compound was pre-warmed at 37 °C for 2 min. The reaction was initiated with 50 µL of 2.5 mM […] and incubated at 37 °C for 30 min (optimised incubation time). The reaction was stopped with the addition of 330 µL of 15% zinc sulphate. Tubes were vortexed and left for 5 min (at room temperature) and then 330 µL of saturated barium hydroxide was added. Tubes were further vortexed and left for 5 min (at room temperature). Tubes were then centrifuged at 1800 g for 10 min. To 830 µL of the supernatant, 330 µL of Nash reagent (30% (w/v) ammonium acetate, 0.4% (v/v) acetyl acetone) was added and further incubated at 60 °C for 30 min. The blank tube contained 330 µL of Nash reagent and 830 µL of Milli-Q-water. The tubes were centrifuged again at 1800× g for 10 min and the absorbance was read at 415 nm. Results presented are the mean ± SEM of 3 independent experiments conducted in duplicate.

| SMILES | CYP3A catalytic activity |
| --- | --- |
| O=C(O)C1CC2C=CC1O2 (stereo not shown) [7-oxabicyclo[2.2.1]-hept-5-ene-2-carboxylic acid] | 0.41 ± 0.02 nmol/mg/min |
| C[C@]12CC(=O)C[C@@]1(C)CC(=O)C2 [cis-1,5-dimethylbicyclo[3.3.0]octane-3,7-dione] | 0.41 ± 0.02 nmol/mg/min |

Same assay, conditions: 25 µM

| SMILES | CYP3A catalytic activity |
| --- | --- |
| O=C(O)C1CC2C=CC1O2 (stereo not shown) [7-oxabicyclo[2.2.1]-hept-5-ene-2-carboxylic acid] | 0.40 ± 0.02 nmol/mg/min |
| C[C@]12CC(=O)C[C@@]1(C)CC(=O)C2 [cis-1,5-dimethylbicyclo[3.3.0]octane-3,7-dione] | 0.40 ± 0.03 nmol/mg/min |

Same assay, conditions: possum (Trichosurus vulpecula), liver microsomes, pH 7.4, probe erythromycin, 12.5 µM, read-out: CYP3A catalytic activity, % of Control

| SMILES | activity at 30 min, 12.5 µM |
| --- | --- |
| O=C(O)C1CC2C=CC1O2 (stereo not shown) [7-oxabicyclo[2.2.1]-hept-5-ene-2-carboxylic acid] | 106 ± 7.47% |
| C[C@]12CC(=O)C[C@@]1(C)CC(=O)C2 [cis-1,5-dimethylbicyclo[3.3.0]octane-3,7-dione] | 106 ± 1.42% |

Same assay, conditions: possum (Trichosurus vulpecula), liver microsomes, pH 7.4, probe erythromycin, 25 µM, read-out: CYP3A catalytic activity, % of Control

| SMILES | activity at 30 min, 25 µM |
| --- | --- |
| O=C(O)C1CC2C=CC1O2 (stereo not shown) [7-oxabicyclo[2.2.1]-hept-5-ene-2-carboxylic acid] | 103 ± 1.09% |
| C[C@]12CC(=O)C[C@@]1(C)CC(=O)C2 [cis-1,5-dimethylbicyclo[3.3.0]octane-3,7-dione] | 103 ± 6.11% |

Test system: CYP3A
Assay: CYP3A catalytic activity (erythromycin-N-demethylation), rat hepatic microsomes
Type: in vitro ADME
Settings: 12.5 µM
Procedure: as §1, §2

| SMILES | CYP3A catalytic activity |
| --- | --- |
| O=C(O)C1CC2C=CC1O2 (stereo not shown) [7-oxabicyclo[2.2.1]-hept-5-ene-2-carboxylic acid] | 0.48 ± 0.06 nmol/mg/min |
| C[C@]12CC(=O)C[C@@]1(C)CC(=O)C2 [cis-1,5-dimethylbicyclo[3.3.0]octane-3,7-dione] | 0.59 ± 0.04 nmol/mg/min |

Same assay, conditions: 25 µM

| SMILES | CYP3A catalytic activity |
| --- | --- |
| O=C(O)C1CC2C=CC1O2 (stereo not shown) [7-oxabicyclo[2.2.1]-hept-5-ene-2-carboxylic acid] | 0.51 ± 0.04 nmol/mg/min |
| C[C@]12CC(=O)C[C@@]1(C)CC(=O)C2 [cis-1,5-dimethylbicyclo[3.3.0]octane-3,7-dione] | 0.60 ± 0.06 nmol/mg/min |

Same assay, conditions: liver microsomes, pH 7.4, probe erythromycin, 12.5 µM, read-out: CYP3A catalytic activity, % of Control

| SMILES | activity at 30 min, 12.5 µM |
| --- | --- |
| O=C(O)C1CC2C=CC1O2 (stereo not shown) [7-oxabicyclo[2.2.1]-hept-5-ene-2-carboxylic acid] | 107 ± 5.87% |
| C[C@]12CC(=O)C[C@@]1(C)CC(=O)C2 [cis-1,5-dimethylbicyclo[3.3.0]octane-3,7-dione] | 98.3 ± 3.1% |

Same assay, conditions: liver microsomes, pH 7.4, probe erythromycin, 25 µM, read-out: CYP3A catalytic activity, % of Control

| SMILES | activity at 30 min, 25 µM |
| --- | --- |
| O=C(O)C1CC2C=CC1O2 (stereo not shown) [7-oxabicyclo[2.2.1]-hept-5-ene-2-carboxylic acid] | 114 ± 3.17% |
| C[C@]12CC(=O)C[C@@]1(C)CC(=O)C2 [cis-1,5-dimethylbicyclo[3.3.0]octane-3,7-dione] | 99.3 ± 1% |

Test system: UGT
Assay: p-nitrophenol glucuronidation, mouse hepatic microsomes
Type: in vitro ADME
Settings: 12.5 µM
Procedure: as §1
(§3) The rate of p-nitrophenol glucuronidation was determined as previously reported. In short, the incubation mixture (500 µL in total) contained; 100 µL of 1 mg/mL microsomes, 50 µL of 1 M Tris-HCl (pH = 7.4), 20 µL of 0.25% (v/v) Triton-X 100, 50 µL of 50 mM MgCl2, 130 µL of double distilled water, 50 µL of 5 mM p-nitrophenol, 50 µL of the test compound, and 50 µL of uridine 5′-diphosphoglucuronic acid trisodium salt (UDPGA). The blank tubes had all components except UDPGA and microsomes; instead, 150 µL of 0.1 M phosphate buffer was added to equal the volume as the reaction mixture. The reaction mixture and the blank were incubated at 37 °C for 2 min. Then, 50 µL of 30 mM UDPGA was added to initiate the reaction which proceeded at 37 °C for 30 min (optimised incubation time). The reaction was stopped using 1 mL of 5% trichloroacetic acid (TCA). The tubes were centrifuged at 1800 g for 10 min and then 1 mL of supernatant was added to 250 µL of 2 M sodium hydroxide (NaOH). The absorbance was read at 405 nm. The sample reading was subtracted from the blank absorbance and divided by the extinction coefficient of p-nitrophenol ([…]) and the light path of the spectrophotometer (1 cm). The glucuronidation activities are expressed in µmol/mg/min and are the mean ± SEM of 3 independent experiments conducted in duplicate.

| SMILES | p-nitrophenol glucuronidation activity | p-nitrophenol glucuronidation, % of Control |
| --- | --- | --- |
| O=C(O)C1CC2C=CC1O2 (stereo not shown) [7-oxabicyclo[2.2.1]-hept-5-ene-2-carboxylic acid] | 3.46 ± 0.04 µmol/mg/min | 101.00 ± 0.64% |
| C[C@]12CC(=O)C[C@@]1(C)CC(=O)C2 [cis-1,5-dimethylbicyclo[3.3.0]octane-3,7-dione] | 2.56 ± 0.11 µmol/mg/min | 102.19 ± 2.82% |

Same assay, conditions: 25 µM

| SMILES | p-nitrophenol glucuronidation activity | p-nitrophenol glucuronidation, % of Control |
| --- | --- | --- |
| O=C(O)C1CC2C=CC1O2 (stereo not shown) [7-oxabicyclo[2.2.1]-hept-5-ene-2-carboxylic acid] | 3.26 ± 0.09 µmol/mg/min | 95.53 ± 4.50% |
| C[C@]12CC(=O)C[C@@]1(C)CC(=O)C2 [cis-1,5-dimethylbicyclo[3.3.0]octane-3,7-dione] | 2.40 ± 0.15 µmol/mg/min | 95.72 ± 2.42% |

Same assay, conditions: 2.5 mM, positive control

| SMILES | decrease of hepatic p-nitrophenol glucuronidation |
| --- | --- |
| OC(Cn1cncn1)(Cn1cncn1)c1ccc(F)cc1F [fluconazole, reference compound] | 20 percent control |

Test system: CYP3A
Assay: CYP3A catalytic activity (erythromycin-N-demethylation), mouse hepatic microsomes
Type: in vitro ADME
Settings: 12.5 µM
Procedure: as §1, §2

| SMILES | CYP3A catalytic activity |
| --- | --- |
| O=C(O)C1CC2C=CC1O2 (stereo not shown) [7-oxabicyclo[2.2.1]-hept-5-ene-2-carboxylic acid] | 0.67 ± 0.01 nmol/mg/min |
| C[C@]12CC(=O)C[C@@]1(C)CC(=O)C2 [cis-1,5-dimethylbicyclo[3.3.0]octane-3,7-dione] | 0.71 ± 0.03 nmol/mg/min |

Same assay, conditions: 25 µM

| SMILES | CYP3A catalytic activity |
| --- | --- |
| O=C(O)C1CC2C=CC1O2 (stereo not shown) [7-oxabicyclo[2.2.1]-hept-5-ene-2-carboxylic acid] | 0.66 ± 0.03 nmol/mg/min |
| C[C@]12CC(=O)C[C@@]1(C)CC(=O)C2 [cis-1,5-dimethylbicyclo[3.3.0]octane-3,7-dione] | 0.70 ± 0.03 nmol/mg/min |

Same assay, conditions: liver microsomes, pH 7.4, probe erythromycin, 12.5 µM, read-out: CYP3A catalytic activity, % of Control

| SMILES | activity at 30 min, 12.5 µM |
| --- | --- |
| O=C(O)C1CC2C=CC1O2 (stereo not shown) [7-oxabicyclo[2.2.1]-hept-5-ene-2-carboxylic acid] | 103 ± 2.77% |
| C[C@]12CC(=O)C[C@@]1(C)CC(=O)C2 [cis-1,5-dimethylbicyclo[3.3.0]octane-3,7-dione] | 101 ± 2.7% |

Same assay, conditions: liver microsomes, pH 7.4, probe erythromycin, 25 µM, read-out: CYP3A catalytic activity, % of Control

| SMILES | activity at 30 min, 25 µM |
| --- | --- |
| O=C(O)C1CC2C=CC1O2 (stereo not shown) [7-oxabicyclo[2.2.1]-hept-5-ene-2-carboxylic acid] | 103 ± 3.52% |
| C[C@]12CC(=O)C[C@@]1(C)CC(=O)C2 [cis-1,5-dimethylbicyclo[3.3.0]octane-3,7-dione] | 99.64 ± 0.93% |

Test system: UGT
Assay: p-nitrophenol glucuronidation, possum hepatic microsomes
Type: in vitro ADME, possum (Trichosurus vulpecula)
Settings: 12.5 µM
Procedure: as §1, §3

| SMILES | p-nitrophenol glucuronidation activity | p-nitrophenol glucuronidation, % of Control |
| --- | --- | --- |
| O=C(O)C1CC2C=CC1O2 (stereo not shown) [7-oxabicyclo[2.2.1]-hept-5-ene-2-carboxylic acid] | 4.02 ± 0.09 µmol/mg/min | 99.13 ± 1.29% |
| C[C@]12CC(=O)C[C@@]1(C)CC(=O)C2 [cis-1,5-dimethylbicyclo[3.3.0]octane-3,7-dione] | 3.77 ± 0.28 µmol/mg/min | 93.15 ± 4.58% |

Same assay, conditions: 25 µM

| SMILES | p-nitrophenol glucuronidation activity | p-nitrophenol glucuronidation, % of Control |
| --- | --- | --- |
| O=C(O)C1CC2C=CC1O2 (stereo not shown) [7-oxabicyclo[2.2.1]-hept-5-ene-2-carboxylic acid] | 3.99 ± 0.09 µmol/mg/min | 98.49 ± 0.83% |
| C[C@]12CC(=O)C[C@@]1(C)CC(=O)C2 [cis-1,5-dimethylbicyclo[3.3.0]octane-3,7-dione] | 3.78 ± 0.28 µmol/mg/min | 93.30 ± 4.13% |

Test system: UGT
Assay: p-nitrophenol glucuronidation, rat hepatic microsomes
Type: in vitro ADME
Settings: 12.5 µM
Procedure: as §1, §3

| SMILES | p-nitrophenol glucuronidation activity | p-nitrophenol glucuronidation, % of Control |
| --- | --- | --- |
| O=C(O)C1CC2C=CC1O2 (stereo not shown) [7-oxabicyclo[2.2.1]-hept-5-ene-2-carboxylic acid] | 2.87 ± 0.07 µmol/mg/min | 102.50 ± 2.98% |
| C[C@]12CC(=O)C[C@@]1(C)CC(=O)C2 [cis-1,5-dimethylbicyclo[3.3.0]octane-3,7-dione] | 2.58 ± 0.03 µmol/mg/min | 98.32 ± 3.38% |

Same assay, conditions: 25 µM

| SMILES | p-nitrophenol glucuronidation activity | p-nitrophenol glucuronidation, % of Control |
| --- | --- | --- |
| O=C(O)C1CC2C=CC1O2 (stereo not shown) [7-oxabicyclo[2.2.1]-hept-5-ene-2-carboxylic acid] | 2.75 ± 0.06 µmol/mg/min | 98.20 ± 1.42% |
| C[C@]12CC(=O)C[C@@]1(C)CC(=O)C2 [cis-1,5-dimethylbicyclo[3.3.0]octane-3,7-dione] | 2.56 ± 0.02 µmol/mg/min | 97.79 ± 2.87% |
